Measurements from US11643405B2, “Compound for treatment or prevention of liver diseases” (JIANGSU ATOM BIOSCIENCE AND PHARMACEUTICAL CO., LTD., priority 2018, dated 2023).
Marks after values point to notes of the source that are not given here.

What was measured:
[1] = tested on: zebrafish non-alcoholic fatty liver; experiment: Fat reduction or elimination effect on thioacetamide-induced zebrafish non-alcoholic fatty liver (Oil Red O staining); assay type: in vivo; details: for The total optical density of liver fat: mean ± SE, n = 10; for inhibition at 100 µM / inhibition at 200 µM: Danio rerio, read-out: Inhibition rate of liver steatosis
Protocol: 40 mM stock solution of test compounds 4, 5, 6, 7, 46, 67, 78, 85, 92 and 101 were prepared with DMSO, and stored in a refrigerator at −20° C. The positive control compound S-adenosylmethionine (SAM) was purchased from Aladdin Reagent (Shanghai) Co., Ltd., with the batch number F1523051, which was prepared into a 50 mM stock solution with DMSO. The control compound silymarin was purchased from Shanghai Dibai Biotechnology Co., Ltd., with the batch number EE09, which was prepared into a 40 mM stock solution with DMSO. Thioacetamide was purchased from Sigma-Aldrich, with the batch number BCBV3031, which wasprepared into a 1 M stock solution with DMSO. Oil Red O was purchased from Sigma-Aldrich, with the batch number SLBP5248V. 4% paraformaldehyde was purchased from Dingguo Biotechnology Co., Ltd., with the batch number 773001800. Propylene glycol was purchased from Sinopharm Chemical Reagent Co., Ltd., with the batch number 20170615.
The melanin allele mutant translucent Albino line zebrafish was reproduced in natural paired mating. The fish age was 3 days after fertilization, with 30 fish per experimental group.
The above zebrafish were raised in fish farming water at 28° C. (water quality: 200 mg instant sea salt was added to 1 L of reverse osmosis water, conductivity was 480-510 μS/cm; pH was 6.9-7.2; hardness was 53.7-71.6 mg/L CaCOs), the experimental animal use license number was: SYXK (Zhejiang) 2012-0171. Feeding management met the requirements of international AAALAC certification.
Three days after fertilization, the normal melanin allele mutant translucent Albino strain of zebrafish was randomly selected and placed in a six well plate with 30 fish per well (i.e. each experimental group), and then thioacetamide with the final concentration of 7 mM was used to treat zebrafish for 72 hours to establish the non-alcoholic fatty liver model.
The zebrafish were transferred to a six-well plate, with 30 fish per well (i.e., each experimental group) randomly. Non-alcoholic fatty liver model in zebrafish were induced by thioacetamide. 40 mM test compounds 4, 5, 6, 7, 46, 67, 78, 85, 92 and 101 were quantitatively transferred to a six-well plate, and diluted with water to the corresponding concentration. Test compounds 4, 5, 6 and 7 were formulated into two dose groups with final concentration of 100 μM and 200 μM, respectively; test compound 46 was formulated into a dose group with final concentration of 200 μM; test compounds 67, 78, 85, 92 and 101 were formulated into dose groups with a final concentration of 100 μM; 50 mM positive control SAM was formulated with water to a dose group with final concentration of 50 μM, and a 40 mM positive control silymarin was formulated with water to two concentration dose groups with final concentration of 100 μM and 200 μM. A normal control group (zebrafish treated with fish farming water) and a model control group were set at the same time, and the total volume of each well was 3 mL. Except for the normal control group, the other experimental groups were treated with thioacetamide for 72 hours and stained with Oil Red O. After staining, 10 zebrafish were randomly selected from each experimental group and photographed under a dissecting microscope, NIS-Elements D 3.10 advanced image processing software was used to perform image analysis and collect data, the total optical density (S) of zebrafish liver fat was statistically analyzed, and for the inhibitory effect of each experimental group on liver steatosis of zebrafishwas evaluated by the following formula, the results of statistical analysis were expressed as mean±SE: Inhibition rate of liver steatosis (%)=[S(model control group)−S(test compound group)]/[S(model control group)−S(normal control group)]×100%
Statistical analysis was performed using analysis of variance and Dunnett's T-test, and p<0.05 indicated a significant difference. […]

NASH mice = experiment: Efficacy on non-alcoholic steatohepatitis (NASH) mice fed high-fat feed; assay type: in vivo, C57BL/6 mice; details: for Liver coefficient (liver weight/body weight) / Liver weight: 28 days; for Liver weight: X ± SD
Protocol: The test compounds were 4 and 7, respectively; the positive control silymarin was purchased from Shanghai Dibai Biotechnology Co., Ltd., with the batch number HH06.
Low-dose group (35 mg/kg) solution preparation: the quantitative test compound was precisely weighed and a certain amount of normal saline was added to prepare the oral suspension solution with the concentration of 3.5 mg/mL. The administration volume was 10 mL/kg.
High-dose group (70 mg/kg) solution preparation: the quantitative test compound was precisely weighed and a certain amount of normal saline was added to prepare the oral suspension solution with the concentration of 7.0 mg/mL. The administration volume was 10 mL/kg.
High-fat feed: basic feed ingredients were corn, flour, imported fish meal, soybean meal, secondary meal, yeast meal, soybean oil, etc. The high-fat feed was prepared from 73.6% basic feed with 10% lard, 10% egg yolk powder, 5% sucrose, 1.2% cholesterol and 0.2% pig bile salt.
Source, species, strain: C57BL/6 mice, provided by Beijing Vital River Laboratory Animal Technology Co., Ltd. Nanjing Branch (experimental animal production license: SCXK (Su) 2016-0003); experimental animal use license: SYXK (Jun) 2012-0049; age: 6-8 weeks at the beginning of dosing; weight: 18-22 g; gender: half male and half female.
After 3 days of adaptive feeding with normal feed, the mice were randomly assigned according to body weight: 8 mice were fed with normal feed and set as normal control (NC); the rest of mice were fed with high-fat feed until the end of the experiment. The mice were weighed and recorded every 3 days. After feeding with high-fat diet for 56 days (8 weeks), blood samples were collected from the orbital vein of mice to detect the blood biochemical indexes to identify whether the modelling was successful.
After successful modeling, the mice in the high-fat feed group were randomly divided into 6 groups with 8 animals in each group, including model group, compound 4 low dose group, compound 4 high dose group, compound 7 low dose group, compound 7 high dose group and silymarin high-dose group. The mice in each group were administered intragastrically according to the animal's body weight every day for 28 consecutive days (4 weeks). At the same time, during the administration period, the mice in each administration group and model group continued to be fed with high-fat feed until the end of the experiment. The normal control group was administered the corresponding volume of normal saline.
On the last day of the experiment, the mice in each group were fasted for 8 hours, blood was taken from the orbit and the serum was separated and then stored at −20° C. After blood collection, the mice were sacrificed and the liver was quickly separated, weighed and stored in a refrigerator at −80° C. Serum samples and liver tissue samples were subjected to determinations of serum triglyceride (TG), serum total cholesterol (TC), serum high-density lipoprotein (HDL-C), serum low-density lipoprotein (LDL-C), serum alanine aminotransferase (ALT), serum aspartate aminotransferase (AST), serum tumor necrosis factor alpha (TNFα), liver triglycerides (TG), liver total cholesterol (TC), liver malondialdehyde (MDA), liver superoxide dismutase (SOD); in addition, some livers of mice in the blank control group, model group, compound 7 low-dose group and silymarin high-dose group were fixed in neutral formaldehyde fixed solution and then HE staining was performed to analyzed the pathological changes of liver tissue.

Compound: COc1cc(C2Oc3cc(C4Oc5cc(O)cc(O)c5C(O)C4O)cc(O)c3OC2CO)ccc1O (stereo not drawn) [Compound 4, 2-{8-hydroxy-3-(4-hydroxy-3-methoxyphenyl)-2-hydroxymethyl-2,3-dihydrobenzo[b][1,4]dioxan-6-yl}chroman-3,4,5,7-tetraol]
- Therapeutic effect on non-alcoholic fatty liver of zebrafish (in words) ([1]; 100 μM): significant therapeutic effects
- The total optical density of liver fat ([1]; 100 μM): 18598 ± 608 Pixels
- Therapeutic effect on zebrafish non-alcoholic fatty liver (in words) ([1]; 200 μM): significant therapeutic effect
- The total optical density of liver fat ([1]; 200 μM): 17802 ± 487 Pixels
- inhibition at 100 µM ([1]; 100 μM): 83%
- inhibition at 200 µM ([1]; 200 μM): 99%
- TG (NASH mice; 35 mg/kg/day): 1.21 ± 0.05 mmol/L
- Liver coefficient (liver weight/body weight) (NASH mice; 35 mg/kg/day intragastric): 4.43 ± 0.31 %
- Liver weight (NASH mice; 35 mg/kg/day intragastric): 1.39 ± 0.03 g
- TG (NASH mice; 70 mg/kg/day): 1.18 ± 0.06 mmol/L
- Liver coefficient (liver weight/body weight) (NASH mice; 70 mg/kg/day intragastric): 4.54 ± 0.33 %
- Liver weight (NASH mice; 70 mg/kg/day intragastric): 1.43 ± 0.03 g
- Therapeutic effect on non-alcoholic steatohepatitis in mice (in words) (NASH mice; 35 and 70 mg/kg): significant therapeutic effects
- MDA (NASH mice; liver, 35 mg/kg/day): 2.91 ± 0.42 nmol/mg
- SOD (NASH mice; liver, 35 mg/kg/day): 18.08 ± 3.90 U/mg
- TC (NASH mice; liver, 35 mg/kg/day): 1.51 ± 0.06 mmol/L
- MDA (NASH mice; liver, 70 mg/kg/day): 2.80 ± 0.21 nmol/mg
- SOD (NASH mice; liver, 70 mg/kg/day): 17.42 ± 4.16 U/mg
- TC (NASH mice; liver, 70 mg/kg/day): 1.51 ± 0.11 mmol/L
- ALT (NASH mice; serum, 35 mg/kg/day): 89.08 ± 18.93 U/L
- AST (NASH mice; serum, 35 mg/kg/day): 140.13 ± 13.93 U/L
- HDL-C (NASH mice; serum, 35 mg/kg/day): 0.95 ± 0.33 mmol/L
- LDL-C (NASH mice; serum, 35 mg/kg/day): 2.55 ± 0.50 mmol/L
- TC (NASH mice; serum, 35 mg/kg/day): 2.59 ± 0.32 mmol/L
- TG (NASH mice; serum, 35 mg/kg/day): 1.18 ± 0.02 mmol/L
- TNF-α (NASH mice; serum, 35 mg/kg/day): 414.20 ± 13.46 ng/L
- ALT (NASH mice; serum, 70 mg/kg/day): 98.29 ± 75.07 U/L
- AST (NASH mice; serum, 70 mg/kg/day): 120.04 ± 12.55 U/L
- HDL-C (NASH mice; serum, 70 mg/kg/day): 0.97 ± 0.37 mmol/L
- LDL-C (NASH mice; serum, 70 mg/kg/day): 2.13 ± 0.54 mmol/L
- TC (NASH mice; serum, 70 mg/kg/day): 2.58 ± 0.30 mmol/L
- TG (NASH mice; serum, 70 mg/kg/day): 1.24 ± 0.16 mmol/L
- TNF-α (NASH mice; serum, 70 mg/kg/day): 415.80 ± 13.54 ng/L

Compound: COc1cc([C@H]2Oc3cc([C@H]4Oc5cc(O)cc(O)c5C(O)[C@@H]4O)ccc3O[C@@H]2CO)ccc1O (stereo partly drawn) [Compound 5, (2R,3S)-2-{(2R,3R)-3-(4-hydroxy-3-methoxyphenyl)-2-hydroxymethyl-2,3-dihydrobenzo[b][1,4]dioxan-6-yl}chroman-3,4,5,7-tetraol]
- Inhibition rate of liver steatosis ([1]; 100 μM): 85** %
- Therapeutic effect on non-alcoholic fatty liver of zebrafish (in words) ([1]; 100 μM): significant therapeutic effects
- The total optical density of liver fat ([1]; 100 μM): 18496 ± 862 Pixels
- Therapeutic effect on zebrafish non-alcoholic fatty liver (in words) ([1]; 200 μM): significant therapeutic effect
- The total optical density of liver fat ([1]; 200 μM): 18452 ± 795 Pixels
- inhibition at 100 µM ([1]; 100 μM): 84%
- inhibition at 200 µM ([1]; 200 μM): 86%

Compound: COc1cc([C@H]2Oc3cc([C@H]4Oc5cc(O)cc(O)c5C[C@@H]4O)ccc3O[C@@H]2CO)ccc1O [Compound 6, (2R,3S)-2-{(2R,3R)-3-(4-hydroxy-3-methoxyphenyl)-2-hydroxymethyl-2,3-dihydrobenzo[b][1,4]dioxan-6-yl}chroman-3,5,7-triol]
- Therapeutic effect on non-alcoholic fatty liver of zebrafish (in words) ([1]; 100 μM): significant therapeutic effects
- The total optical density of liver fat ([1]; 100 μM): 19868 ± 556 Pixels
- Therapeutic effect on zebrafish non-alcoholic fatty liver (in words) ([1]; 200 μM): significant therapeutic effect
- The total optical density of liver fat ([1]; 200 μM): 18157 ± 572 Pixels
- inhibition at 100 µM ([1]; 100 μM): 58%
- inhibition at 200 µM ([1]; 200 μM): 92%

Compound: COc1cc([C@H]2Oc3cc([C@H]4Oc5cc(O)cc(O)c5/C(=N/O)[C@@H]4O)ccc3O[C@@H]2CO)ccc1O [Compound 46, (2R,3S)-3,5,7-trihydroxy-2-{(2R,3R)-3-(4-hydroxy-3-methoxyphenyl)-2-hydroxymethyl-2,3-dihydrobenzo[b][1,4]dioxan-6-yl}chroman-4-one oxime]
- Therapeutic effect on zebrafish non-alcoholic fatty liver (in words) ([1]; 200 μM): significant therapeutic effect
- The total optical density of liver fat ([1]; 200 μM): 19767 ± 814 Pixels
- inhibition at 200 µM ([1]; 200 μM): 60%

Compound: COc1cc(OC)c2c(c1)OC(c1cc(O)c3c(c1)OC(c1ccc(O)c(OC)c1)C(CO)O3)C(O)C2 (stereo not drawn) [Compound 78, 7-{(3-hydroxy-5,7-dimethoxychroman-2-yl)-2-(4-hydroxy-3-methoxyphenyl)-3-hydroxymethyl-2,3-dihydrobenzo[b][1,4]dioxane}-5-ol]
- Therapeutic effect on non-alcoholic fatty liver of zebrafish (in words) ([1]; 100 μM): significant therapeutic effects
- The total optical density of liver fat ([1]; 100 μM): 19665 ± 1330 Pixels
- inhibition at 100 µM ([1]; 100 μM): 62%

Compound: COc1cc(OC)c2c(c1)OC(c1cc(O)c3c(c1)OC(c1ccc(O)c(OC)c1)C(CO)O3)C(O)C2O (stereo not drawn) [Compound 92, 2-{8-hydroxy-3-(4-hydroxy-3-methoxyphenyl)-2-hydroxymethyl-2,3-dihydrobenzo[b][1,4]dioxan-6-yl}-5,7-dimethoxychroman-3,4-diol]
- Therapeutic effect on non-alcoholic fatty liver of zebrafish (in words) ([1]; 100 μM): significant therapeutic effects
- The total optical density of liver fat ([1]; 100 μM): 17836 ± 639 Pixels
- inhibition at 100 µM ([1]; 100 μM): 98%

Compound: COc1cc(C2Oc3cc(C4Oc5cc(F)cc(O)c5C(O)C4O)cc(O)c3OC2CO)ccc1O (stereo not drawn) [Compound 101, 7-fluoro-2-{8-hydroxy-3-(4-hydroxy-3-methoxyphenyl)-2-hydroxymethyl-2,3-dihydrobenzo[b][1,4]dioxan-6-yl}chroman-3,4,5-triol]
- Therapeutic effect on non-alcoholic fatty liver of zebrafish (in words) ([1]; 100 μM): significant therapeutic effects
- The total optical density of liver fat ([1]; 100 μM): 18090 ± 837 Pixels
- inhibition at 100 µM ([1]; 100 μM): 93%

Compound: C[S+](CC[C@H](N)C(=O)[O-])C[C@H]1O[C@@H](n2cnc3c(N)ncnc32)[C@H](O)[C@@H]1O (stereo partly drawn) [S-adenosylmethionine, reference compound]
- Inhibition rate of liver steatosis ([1]; 50 μM (SAM)): 89%
- The total optical density of liver fat ([1]; 50 μM (SAM)): 18301 ± 783 Pixels
